Test results from BindingDB's records for doi:10.1021/cb300623a (University of Washington, 2013).

Tests used:
Test in all cases: Fluorescence Assay
Details in all cases: pH 7.5; 25 °C
[1] = molecular target: Tyrosine-protein kinase CSK (Homo sapiens, UniProt P41240)
Text: (§1) Fluorescence assay used for determination of catch and release efficiency.

[2] = molecular target: Tyrosine-protein kinase HCK (Homo sapiens, UniProt P08631)
Text: as §1

[3] = molecular target: Serine/threonine-protein kinase PAK 4 (Homo sapiens, UniProt O96013)
Serine/threonine-protein kinase PAK 4, sequence (O96013 whole entry): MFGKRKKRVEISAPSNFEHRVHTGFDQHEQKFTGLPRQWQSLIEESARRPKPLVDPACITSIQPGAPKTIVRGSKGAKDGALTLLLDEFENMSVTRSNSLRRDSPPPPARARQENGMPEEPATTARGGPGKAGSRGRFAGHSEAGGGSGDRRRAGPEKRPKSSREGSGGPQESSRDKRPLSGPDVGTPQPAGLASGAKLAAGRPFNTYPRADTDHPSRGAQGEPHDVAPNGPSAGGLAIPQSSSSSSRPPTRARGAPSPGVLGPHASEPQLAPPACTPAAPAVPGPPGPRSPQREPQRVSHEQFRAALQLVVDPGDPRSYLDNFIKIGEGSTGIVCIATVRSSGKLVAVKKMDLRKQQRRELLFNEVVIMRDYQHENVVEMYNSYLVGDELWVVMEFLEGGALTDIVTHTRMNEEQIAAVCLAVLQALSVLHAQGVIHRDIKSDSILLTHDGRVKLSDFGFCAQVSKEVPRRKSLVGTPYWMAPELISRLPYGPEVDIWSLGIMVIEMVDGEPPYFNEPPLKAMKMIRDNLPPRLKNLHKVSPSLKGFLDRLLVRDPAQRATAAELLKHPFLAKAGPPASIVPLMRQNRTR
Text: as §1

[4] = molecular target: Serine/threonine-protein kinase 10 (Homo sapiens, UniProt O94804)
Serine/threonine-protein kinase 10, sequence (O94804 whole entry): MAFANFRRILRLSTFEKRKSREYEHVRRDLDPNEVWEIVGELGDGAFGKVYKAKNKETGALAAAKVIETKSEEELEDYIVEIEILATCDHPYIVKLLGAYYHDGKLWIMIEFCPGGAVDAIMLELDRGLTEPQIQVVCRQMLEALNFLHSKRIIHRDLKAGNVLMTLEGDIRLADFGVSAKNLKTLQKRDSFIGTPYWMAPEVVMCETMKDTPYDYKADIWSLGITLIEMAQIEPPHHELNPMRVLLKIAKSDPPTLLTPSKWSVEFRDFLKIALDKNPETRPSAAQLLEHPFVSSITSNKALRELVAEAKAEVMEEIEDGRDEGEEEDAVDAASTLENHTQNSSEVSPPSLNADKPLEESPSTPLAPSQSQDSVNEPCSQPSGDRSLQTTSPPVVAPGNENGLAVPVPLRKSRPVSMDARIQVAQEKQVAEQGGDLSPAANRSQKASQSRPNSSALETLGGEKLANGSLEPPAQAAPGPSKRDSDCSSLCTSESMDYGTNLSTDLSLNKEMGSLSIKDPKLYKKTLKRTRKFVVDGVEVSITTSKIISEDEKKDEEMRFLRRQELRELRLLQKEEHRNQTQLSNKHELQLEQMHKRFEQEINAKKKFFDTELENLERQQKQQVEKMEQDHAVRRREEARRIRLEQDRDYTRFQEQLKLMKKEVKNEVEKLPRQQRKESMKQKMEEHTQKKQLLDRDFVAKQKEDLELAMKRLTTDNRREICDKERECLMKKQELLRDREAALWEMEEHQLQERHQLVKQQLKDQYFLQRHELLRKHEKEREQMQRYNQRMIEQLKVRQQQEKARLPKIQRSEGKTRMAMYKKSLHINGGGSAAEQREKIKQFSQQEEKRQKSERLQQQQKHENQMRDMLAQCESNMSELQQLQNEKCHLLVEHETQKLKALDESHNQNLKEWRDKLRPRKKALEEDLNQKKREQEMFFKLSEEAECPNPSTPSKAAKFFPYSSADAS
Text: as §1

[5] = molecular target: Tyrosine-protein kinase ABL1 (Homo sapiens, UniProt P00519)
Tyrosine-protein kinase ABL1, sequence (P00519 whole entry): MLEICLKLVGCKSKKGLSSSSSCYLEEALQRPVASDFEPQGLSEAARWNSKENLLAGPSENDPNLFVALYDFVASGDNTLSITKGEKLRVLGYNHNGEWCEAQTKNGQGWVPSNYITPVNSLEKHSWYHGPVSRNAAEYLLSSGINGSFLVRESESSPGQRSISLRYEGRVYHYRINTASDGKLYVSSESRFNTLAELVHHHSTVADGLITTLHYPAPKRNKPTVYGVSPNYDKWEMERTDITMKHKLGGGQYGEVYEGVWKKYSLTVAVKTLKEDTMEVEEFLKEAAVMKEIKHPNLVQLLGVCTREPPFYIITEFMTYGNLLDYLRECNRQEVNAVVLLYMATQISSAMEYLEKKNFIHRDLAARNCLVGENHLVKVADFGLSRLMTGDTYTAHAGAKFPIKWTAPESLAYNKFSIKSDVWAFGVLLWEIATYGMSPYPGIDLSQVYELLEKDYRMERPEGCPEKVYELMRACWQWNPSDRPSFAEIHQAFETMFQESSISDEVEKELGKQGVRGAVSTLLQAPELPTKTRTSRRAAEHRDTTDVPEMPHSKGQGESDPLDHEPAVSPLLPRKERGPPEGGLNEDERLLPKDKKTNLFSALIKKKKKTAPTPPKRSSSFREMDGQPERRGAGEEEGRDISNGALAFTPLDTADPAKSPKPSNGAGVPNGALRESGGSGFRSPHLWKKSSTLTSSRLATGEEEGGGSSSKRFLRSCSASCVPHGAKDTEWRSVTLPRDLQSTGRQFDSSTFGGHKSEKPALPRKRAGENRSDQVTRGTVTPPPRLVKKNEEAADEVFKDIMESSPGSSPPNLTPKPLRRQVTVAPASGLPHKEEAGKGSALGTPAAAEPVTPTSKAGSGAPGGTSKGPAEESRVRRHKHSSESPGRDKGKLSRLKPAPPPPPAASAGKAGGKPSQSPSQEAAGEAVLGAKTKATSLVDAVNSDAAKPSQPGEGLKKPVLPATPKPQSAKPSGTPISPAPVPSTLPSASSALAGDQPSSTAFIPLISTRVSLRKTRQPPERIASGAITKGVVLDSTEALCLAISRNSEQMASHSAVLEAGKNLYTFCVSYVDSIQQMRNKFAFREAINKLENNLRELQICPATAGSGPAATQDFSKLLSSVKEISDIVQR
Text: as §1

[6] = molecular target: Proto-oncogene tyrosine-protein kinase Src (Homo sapiens, UniProt P12931)
Proto-oncogene tyrosine-protein kinase Src, sequence (P12931 2-536 limits assumed): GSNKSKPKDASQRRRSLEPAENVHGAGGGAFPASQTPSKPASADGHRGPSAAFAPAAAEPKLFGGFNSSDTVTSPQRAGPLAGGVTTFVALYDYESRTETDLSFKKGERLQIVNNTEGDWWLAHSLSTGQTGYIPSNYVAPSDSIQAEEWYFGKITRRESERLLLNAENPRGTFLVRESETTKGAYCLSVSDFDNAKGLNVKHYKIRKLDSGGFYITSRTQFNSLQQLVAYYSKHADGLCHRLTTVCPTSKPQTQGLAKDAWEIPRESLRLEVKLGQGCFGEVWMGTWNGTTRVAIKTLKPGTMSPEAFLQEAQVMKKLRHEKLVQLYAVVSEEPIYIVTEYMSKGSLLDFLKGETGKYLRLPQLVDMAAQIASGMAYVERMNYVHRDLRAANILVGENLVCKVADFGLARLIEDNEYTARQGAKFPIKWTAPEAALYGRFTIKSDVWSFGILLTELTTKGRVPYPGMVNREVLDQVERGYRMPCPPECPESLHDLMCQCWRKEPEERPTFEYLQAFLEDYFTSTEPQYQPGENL
Text: as §1

[7] = molecular target: Tyrosine-protein kinase Lck (Homo sapiens, UniProt P06239)
Tyrosine-protein kinase Lck, sequence (P06239 whole entry): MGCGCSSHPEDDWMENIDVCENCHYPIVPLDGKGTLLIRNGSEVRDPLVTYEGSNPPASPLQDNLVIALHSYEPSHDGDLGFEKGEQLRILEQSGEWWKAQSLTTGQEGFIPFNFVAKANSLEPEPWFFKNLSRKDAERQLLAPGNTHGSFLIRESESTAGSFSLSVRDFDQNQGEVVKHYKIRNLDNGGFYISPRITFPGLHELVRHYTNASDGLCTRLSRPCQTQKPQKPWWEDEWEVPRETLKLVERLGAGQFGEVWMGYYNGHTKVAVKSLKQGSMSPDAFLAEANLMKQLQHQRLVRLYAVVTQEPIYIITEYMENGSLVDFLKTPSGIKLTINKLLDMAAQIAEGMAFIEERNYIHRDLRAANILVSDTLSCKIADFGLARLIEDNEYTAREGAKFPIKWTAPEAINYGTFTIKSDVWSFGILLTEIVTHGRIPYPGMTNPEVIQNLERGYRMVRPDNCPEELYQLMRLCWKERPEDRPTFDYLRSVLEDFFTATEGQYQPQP
Text: as §1

[8] = molecular target: Serine/threonine-protein kinase PAK 5 (Homo sapiens, UniProt Q9P286)
Serine/threonine-protein kinase PAK 5, sequence (Q9P286 whole entry): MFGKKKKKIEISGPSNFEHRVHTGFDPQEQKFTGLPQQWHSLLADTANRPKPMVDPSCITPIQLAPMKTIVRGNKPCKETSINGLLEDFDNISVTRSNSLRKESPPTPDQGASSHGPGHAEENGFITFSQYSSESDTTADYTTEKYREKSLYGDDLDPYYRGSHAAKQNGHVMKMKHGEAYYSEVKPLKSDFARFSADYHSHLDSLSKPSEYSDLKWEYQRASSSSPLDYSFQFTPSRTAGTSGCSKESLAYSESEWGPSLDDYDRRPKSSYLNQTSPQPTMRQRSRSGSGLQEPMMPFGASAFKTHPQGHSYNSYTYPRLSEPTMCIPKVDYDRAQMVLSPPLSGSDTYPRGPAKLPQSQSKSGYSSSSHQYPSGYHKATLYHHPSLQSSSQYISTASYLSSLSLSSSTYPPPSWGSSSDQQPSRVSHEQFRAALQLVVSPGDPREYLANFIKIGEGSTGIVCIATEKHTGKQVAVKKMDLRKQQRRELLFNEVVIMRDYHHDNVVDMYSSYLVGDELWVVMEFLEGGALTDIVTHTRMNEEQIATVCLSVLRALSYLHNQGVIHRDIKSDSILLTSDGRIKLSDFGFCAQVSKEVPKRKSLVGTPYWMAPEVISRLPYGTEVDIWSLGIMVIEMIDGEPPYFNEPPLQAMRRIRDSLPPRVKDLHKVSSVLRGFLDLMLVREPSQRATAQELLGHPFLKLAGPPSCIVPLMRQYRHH
Text: as §1

[9] = molecular target: T1, Interleukin-1 receptor-associated kinase 4 (Homo sapiens, UniProt Q9NWZ3)
T1 sequence (Q9NWZ3 whole entry): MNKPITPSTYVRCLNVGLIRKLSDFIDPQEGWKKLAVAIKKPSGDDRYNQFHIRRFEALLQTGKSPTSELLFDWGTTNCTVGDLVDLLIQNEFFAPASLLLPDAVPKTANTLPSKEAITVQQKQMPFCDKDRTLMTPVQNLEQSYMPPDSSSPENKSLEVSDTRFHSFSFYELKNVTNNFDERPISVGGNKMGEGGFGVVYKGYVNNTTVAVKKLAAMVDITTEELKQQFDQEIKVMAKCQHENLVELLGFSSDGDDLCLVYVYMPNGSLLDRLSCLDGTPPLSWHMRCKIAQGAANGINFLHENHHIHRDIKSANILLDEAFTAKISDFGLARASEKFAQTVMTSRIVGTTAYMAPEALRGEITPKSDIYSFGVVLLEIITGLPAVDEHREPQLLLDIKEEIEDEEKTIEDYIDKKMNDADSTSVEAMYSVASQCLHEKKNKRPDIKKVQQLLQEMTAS
Text: as §1

[10] = molecular target: T2, Mitogen-activated protein kinase kinase kinase 5 (Homo sapiens, UniProt Q99683)
T2 sequence (Q99683 whole entry): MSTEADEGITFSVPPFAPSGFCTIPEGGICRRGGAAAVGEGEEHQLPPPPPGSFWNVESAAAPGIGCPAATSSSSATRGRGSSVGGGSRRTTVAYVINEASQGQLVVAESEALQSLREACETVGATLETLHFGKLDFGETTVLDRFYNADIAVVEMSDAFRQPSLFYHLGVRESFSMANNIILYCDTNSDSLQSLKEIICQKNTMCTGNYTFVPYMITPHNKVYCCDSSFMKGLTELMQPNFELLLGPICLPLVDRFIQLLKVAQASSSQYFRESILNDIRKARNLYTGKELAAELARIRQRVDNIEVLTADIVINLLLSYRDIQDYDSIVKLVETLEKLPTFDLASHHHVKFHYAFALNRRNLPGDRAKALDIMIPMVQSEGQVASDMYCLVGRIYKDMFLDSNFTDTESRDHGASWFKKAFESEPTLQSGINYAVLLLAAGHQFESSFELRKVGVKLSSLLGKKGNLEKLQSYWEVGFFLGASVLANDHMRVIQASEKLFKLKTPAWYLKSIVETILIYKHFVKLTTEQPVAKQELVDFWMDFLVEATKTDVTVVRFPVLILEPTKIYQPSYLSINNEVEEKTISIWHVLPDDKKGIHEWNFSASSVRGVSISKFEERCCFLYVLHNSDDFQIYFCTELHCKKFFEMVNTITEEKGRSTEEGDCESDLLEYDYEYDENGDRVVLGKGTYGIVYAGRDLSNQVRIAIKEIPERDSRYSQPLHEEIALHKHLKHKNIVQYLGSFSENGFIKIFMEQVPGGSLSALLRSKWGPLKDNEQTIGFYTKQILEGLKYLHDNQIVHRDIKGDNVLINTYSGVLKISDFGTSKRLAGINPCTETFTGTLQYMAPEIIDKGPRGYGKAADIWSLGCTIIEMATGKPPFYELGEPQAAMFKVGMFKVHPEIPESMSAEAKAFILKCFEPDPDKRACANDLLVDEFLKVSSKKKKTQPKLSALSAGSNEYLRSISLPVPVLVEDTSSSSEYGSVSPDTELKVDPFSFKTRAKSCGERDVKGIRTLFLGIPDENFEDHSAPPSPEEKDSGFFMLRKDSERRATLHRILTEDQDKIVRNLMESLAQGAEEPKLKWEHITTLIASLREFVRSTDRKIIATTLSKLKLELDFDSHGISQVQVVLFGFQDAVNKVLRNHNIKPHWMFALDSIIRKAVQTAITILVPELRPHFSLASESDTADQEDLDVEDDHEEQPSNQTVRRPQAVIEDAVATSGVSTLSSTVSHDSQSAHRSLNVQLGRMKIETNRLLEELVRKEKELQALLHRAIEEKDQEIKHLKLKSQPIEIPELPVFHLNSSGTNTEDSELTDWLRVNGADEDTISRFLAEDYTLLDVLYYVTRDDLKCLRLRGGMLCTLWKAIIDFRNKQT
Text: as §1

[11] = molecular target: T3, Ephrin type-A receptor 3 (Homo sapiens, UniProt P29320)
T3 sequence (P29320 whole entry): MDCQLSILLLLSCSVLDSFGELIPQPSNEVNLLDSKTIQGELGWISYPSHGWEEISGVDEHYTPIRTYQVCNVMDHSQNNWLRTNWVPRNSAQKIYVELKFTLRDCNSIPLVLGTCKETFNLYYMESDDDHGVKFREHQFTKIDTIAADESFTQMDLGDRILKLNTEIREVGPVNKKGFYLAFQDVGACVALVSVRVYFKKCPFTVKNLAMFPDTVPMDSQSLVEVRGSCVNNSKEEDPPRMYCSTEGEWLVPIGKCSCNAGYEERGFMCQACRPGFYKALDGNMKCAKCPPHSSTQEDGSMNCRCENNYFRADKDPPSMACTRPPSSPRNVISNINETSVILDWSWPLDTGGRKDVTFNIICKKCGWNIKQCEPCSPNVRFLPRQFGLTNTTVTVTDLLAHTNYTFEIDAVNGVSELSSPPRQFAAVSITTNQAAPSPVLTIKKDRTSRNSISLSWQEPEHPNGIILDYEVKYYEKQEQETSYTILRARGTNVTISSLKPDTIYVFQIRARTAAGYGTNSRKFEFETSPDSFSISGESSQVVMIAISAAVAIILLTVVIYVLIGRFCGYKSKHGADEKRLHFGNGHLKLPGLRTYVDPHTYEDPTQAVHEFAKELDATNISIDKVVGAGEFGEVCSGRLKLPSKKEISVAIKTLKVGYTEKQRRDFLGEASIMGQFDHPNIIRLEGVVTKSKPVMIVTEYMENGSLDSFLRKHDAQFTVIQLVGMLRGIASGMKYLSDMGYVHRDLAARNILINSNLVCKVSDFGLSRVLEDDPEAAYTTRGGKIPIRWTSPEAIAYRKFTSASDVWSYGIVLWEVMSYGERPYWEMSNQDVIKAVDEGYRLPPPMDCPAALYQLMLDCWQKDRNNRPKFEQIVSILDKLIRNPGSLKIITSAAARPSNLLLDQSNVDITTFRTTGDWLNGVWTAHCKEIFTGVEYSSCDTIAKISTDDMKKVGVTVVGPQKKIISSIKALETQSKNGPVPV
Text: as §1

Tyrosine-protein kinase HCK, sequence (P08631 whole entry): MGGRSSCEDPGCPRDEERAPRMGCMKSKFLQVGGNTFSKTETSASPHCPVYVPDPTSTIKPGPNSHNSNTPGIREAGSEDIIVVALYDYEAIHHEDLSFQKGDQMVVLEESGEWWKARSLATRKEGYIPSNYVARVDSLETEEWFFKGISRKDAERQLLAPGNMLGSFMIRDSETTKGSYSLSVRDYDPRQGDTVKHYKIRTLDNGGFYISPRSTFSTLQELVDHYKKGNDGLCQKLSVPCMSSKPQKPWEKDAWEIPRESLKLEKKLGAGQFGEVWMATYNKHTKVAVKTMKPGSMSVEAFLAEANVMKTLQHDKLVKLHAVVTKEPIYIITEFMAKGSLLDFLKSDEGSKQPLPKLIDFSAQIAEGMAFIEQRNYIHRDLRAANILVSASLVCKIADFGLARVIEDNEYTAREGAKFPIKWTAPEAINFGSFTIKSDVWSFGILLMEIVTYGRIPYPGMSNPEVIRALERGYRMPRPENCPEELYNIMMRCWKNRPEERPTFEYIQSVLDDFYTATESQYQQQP

IC50 [1]: 8.4 nM
IC50 [2]: < 0.5 nM
IC50 [3]: > 10000 nM
IC50 [4]: < 10 nM
IC50 [5]: < 2 nM
IC50 [6]: < 2 nM
IC50 [7]: < 2 nM
IC50 [8]: > 10000 nM
IC50 [9]: > 10000 nM
IC50 [10]: > 10000 nM
IC50 [11]: < 10 nM
SMILES: Cc1ccc(NC(=O)c2cccc(C(F)(F)F)c2)cc1-c1ccc2nc(Nc3ccc(OCCN)cc3)ncc2c1 [Kinase inhibitor, 5]
